Measurements reported in the supplement of paper PMC5908809.

How the values were obtained:
Test in all cases: relative IC50 (inflection point of fitted viability curve, relative to fitted max inhibition); higher = less sensitive
Conditions in all cases: 72 h
DERL-7 (IL-2 2.5 ng/mL) = system: DERL-7 (IL-2 2.5 ng/mL)
Method: (§1)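 Drug sensitivity and resistance testing: 5 concentrations over a 10,000-fold range, 72 h at 37 °C, viability by CellTiter-Glo normalised to DMSO and benzethonium chloride controls. IC50 is the inflection point of a logistic fit (min fixed at 0, max fitted), so it is relative to the fitted maximal inhibition. Kept only where fitted max inhibition is at least 50%.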

IMC-1 (IL-2 20 ng/mL) = system: IMC-1 (IL-2 20 ng/mL)
Method: as §1

KAI3 (IL-2 2.5 ng/mL) = system: KAI3 (IL-2 2.5 ng/mL)
Method: as §1

KHYG-1 (IL-2 2.5 ng/mL) = system: KHYG-1 (IL-2 2.5 ng/mL)
Method: as §1

NK-92 (IL-2 2.5 ng/mL) = system: NK-92 (IL-2 2.5 ng/mL)
Method: as §1

NK-YS (IL-2 2.5 ng/mL) = system: NK-YS (IL-2 2.5 ng/mL)
Method: as §1

NKL (IL-2 2.5 ng/mL) = system: NKL (IL-2 2.5 ng/mL)
Method: as §1

SNK-6 (IL-2 2.5 ng/mL) = system: SNK-6 (IL-2 2.5 ng/mL)
Method: as §1

YT (IL-2 2.5 ng/mL) = system: YT (IL-2 2.5 ng/mL)
Method: as §1

[1] = system: normal primary NK cells, pool 1 (3 donors) (IL-2 2.5 ng/mL)
Method: as §1

[2] = system: normal primary NK cells, pool 1 (3 donors), resting (IL-2 0 ng/mL)
Method: as §1

[3] = system: normal primary NK cells, pool 2 (3 donors) (IL-2 2.5 ng/mL)
Method: as §1

[4] = system: normal primary NK cells, pool 3 (3 donors) (IL-2 2.5 ng/mL)
Method: as §1

| SMILES | relative IC50 (DERL-7 (IL-2 2.5 ng/mL)) [µM] | relative IC50 (IMC-1 (IL-2 20 ng/mL)) [µM] | relative IC50 (KAI3 (IL-2 2.5 ng/mL)) [µM] | relative IC50 (KHYG-1 (IL-2 2.5 ng/mL)) [µM] | relative IC50 (NK-92 (IL-2 2.5 ng/mL)) [µM] | relative IC50 (NK-YS (IL-2 2.5 ng/mL)) [µM] | relative IC50 (NKL (IL-2 2.5 ng/mL)) [µM] | relative IC50 (SNK-6 (IL-2 2.5 ng/mL)) [µM] | relative IC50 (YT (IL-2 2.5 ng/mL)) [µM] | relative IC50 [1] [µM] | relative IC50 [2] [µM] | relative IC50 [3] [µM] | relative IC50 [4] [µM] |
| --- | --- | --- | --- | --- | --- | --- | --- | --- | --- | --- | --- | --- | --- |
| C[C@@H](Oc1cc(-n2cnc3ccc(CN4CCN(C)CC4)cc32)sc1C(N)=O)c1ccccc1C(F)(F)F | 0.0278 | 0.0371 | 0.187 | 0.0171 | 0.00734 | 0.0905 | 0.046 | 0.0322 | 0.053 | 1.78 | 0.374 | 1.64 | 2.34 |
| COc1cc(OC2CCN(C)CC2)ccc1Nc1ncc2c(n1)n(C1CCCC1)c(=O)n2C [AZ 3146] | 2.33 | 2.4 | 1.58 | 2.06 | 3.77 | 1.72 | 2.07 | 1.87 | 2.02 | 3.16 | 2.25 | 2.41 | 2.66 |
| COc1c(C)cnc(Cn2cnc3c(Cl)nc(N)nc32)c1C [BIIB021] | 0.0684 | 0.15 | 0.0543 | 0.0618 | 0.0975 | 0.0796 | 0.0957 | 0.0339 | 0.0982 | 0.181 | 0.226 | 0.104 | 0.254 |
| O=C(/C=C/c1cccc(S(=O)(=O)Nc2ccccc2)c1)NO [Belinostat] | 0.161 | 0.173 | 0.0825 | 0.128 | 0.0817 | 0.182 | 0.152 | 0.156 | 0.213 | 0.113 | 0.0839 | 0.143 | 0.2 |
| CC(C)C[C@H](NC(=O)[C@H](Cc1ccccc1)NC(=O)c1cnccn1)B(O)O [Bortezomib] | 0.00169 | 0.00334 | 0.00307 | 0.00294 | 0.00332 | 0.00304 | 0.00328 | 0.00215 | 0.00297 | 0.00362 | 0.0047 | 0.00328 | 0.00362 |
| C#Cc1cccc(Nc2ncnc3cc(OC)c(OCCCCCCC(=O)NO)cc23)c1 [CUDC-101] | 0.177 | 1.02 | 0.27 | 0.131 | 0.277 | 0.889 | 0.412 | 0.276 | 0.267 | 0.293 | 0.198 | 0.347 | 0.504 |
| CC(C)[C@H]1C(=O)N[C@@H](CCCNC(=N)N)C(=O)NCC(=O)N[C@@H](CC(=O)O)C(=O)N[C@H](Cc2ccccc2)C(=O)N1C [Cilengitide] | – | > 10 | – | > 10 | > 10 | – | > 10 | – | > 10 | > 10 | > 10 | > 10 | > 10 |
| Nc1nc(Cl)nc2c1ncn2[C@H]1C[C@H](O)[C@@H](CO)O1 [Cladribine] | 0.0497 | 0.086 | 0.0759 | 0.0305 | 0.0345 | 0.245 | 0.0342 | 0.0492 | 0.235 | 0.0175 | 0.00737 | 0.0161 | 0.0248 |
| COc1cccc2c1C(=O)c1c(O)c3c(c(O)c1C2=O)C[C@@](O)(C(=O)CO)C[C@@H]3O[C@H]1C[C@H](N)[C@H](O)[C@H](C)O1 [Doxorubicin] | 0.0323 | 0.0453 | 0.0272 | 0.0567 | 0.0762 | 0.0294 | 0.00441 | 0.0412 | 0.0696 | 0.118 | 0.0599 | 0.119 | 0.159 |
| Nc1ccccc1NC(=O)c1ccc(CNC(=O)OCc2cccnc2)cc1 [Entinostat] | 1.57 | 2.33 | 0.399 | 0.954 | 0.479 | 1.68 | 0.494 | 0.456 | 2.46 | 1.33 | 0.582 | 1.53 | 2.91 |
| CC(C)c1cc(-c2n[nH]c(=O)n2-c2ccc3c(ccn3C)c2)c(O)cc1O [Ganetespib] | 0.00592 | 0.0323 | 0.0118 | 0.0274 | 0.0168 | 0.0131 | 0.0104 | 0.0283 | 0.0358 | 0.00567 | 0.00618 | 0.00541 | 0.009 |
| NC(=O)N1CCC(CC(=O)N2CCC([C@H]3c4ncc(Br)cc4CCc4cc(Cl)cc(Br)c43)CC2)CC1 [Lonafarnib] | 0.708 | – | – | 0.492 | 0.719 | 0.45 | – | – | 1.06 | 1.66 | 0.693 | 1.58 | 1.86 |
| Cc1ccc(NC(=O)c2ccc(CN3CCN(C)CC3)cc2)cc1Nc1nc(-c2cccnc2)cs1 [Masitinib] | 2 | 3.32 | 2.97 | 2.69 | 3.69 | 2.01 | 3.39 | 4.53 | 2.49 | 3.23 | 3.34 | 3.5 | 3.23 |
| COc1ccc(C2=N[C@@H](c3ccc(Cl)cc3)[C@@H](c3ccc(Cl)cc3)N2C(=O)N2CCNC(=O)C2)c(OC(C)C)c1 [Nutlin-3] | 1.47 | – | 0.731 | – | – | 1.09 | – | 1.01 | 1.44 | 1.49 | 0.442 | 1.96 | 2.75 |
| C=CCc1cccc(/C=N/NC(=O)CN2CCN(Cc3ccccc3)CC2)c1O [PAC-1] | 1.98 | 3.02 | 0.679 | 0.543 | 0.845 | 2.74 | 0.591 | 0.996 | 1.62 | 2.89 | 3.35 | 2.05 | 1.91 |
| CCCCc1nc2cc(/C=C/C(=O)NO)ccc2n1CCN(CC)CC [Pracinostat] | 0.168 | 0.233 | 0.0689 | 0.149 | 0.112 | 0.189 | 0.0765 | 0.207 | 0.213 | 0.163 | 0.0937 | 0.159 | 0.211 |
| COc1ccc(CCc2nc3cc(-c4c(C)noc4C)ccc3n2C[C@H](C)N2CCOCC2)cc1Cl [SGC-CBP30] | 1.49 | – | 10.1 | 4.75 | 10.2 | 3.3 | 1.57 | – | 5.05 | 3.54 | 4.34 | 3.83 | 5.31 |
| CN1CCC(CNc2ccc3ncc(-c4cccc(OC(F)(F)F)c4)n3n2)CC1 [SGI-1776] | 1.12 | 3.13 | 2 | 2.21 | 2.48 | 2.45 | 1.78 | 3.22 | 2.54 | 2.2 | 1.58 | 1.59 | 2.52 |
| CC(C)(C)c1cnc(CSc2cnc(NC(=O)C3CCNCC3)s2)o1 [SNS-032] | 0.0613 | 0.0362 | 0.0758 | 0.277 | 0.224 | 0.0386 | 0.0226 | 0.0747 | 0.0841 | 0.0457 | 0.0534 | 0.0543 | 0.102 |
| c1ccc2c(CCNc3ccc(Nc4ccncc4)cc3)c[nH]c2c1 [Serdemetan] | 0.329 | 2.58 | 0.436 | 1.67 | 1.79 | 0.88 | 0.212 | 2.98 | 1.82 | 0.914 | 0.516 | 1.26 | 1.14 |
| C=CCNC1=C2C[C@@H](C)C[C@H](OC)[C@H](O)[C@@H](C)/C=C(\C)[C@H](OC(N)=O)[C@@H](OC)/C=C\C=C(/C)C(=O)NC(=CC1=O)C2=O [Tanespimycin] | 0.126 | 0.291 | 0.0764 | 0.247 | 0.123 | 0.0802 | 0.0591 | 0.106 | 0.248 | 0.0798 | 0.145 | 0.127 | 0.29 |
| COc1cc2c(NC3CCN(C(C)C)CC3)nc(N3CCC(F)(F)CC3)nc2cc1OCCCN1CCCC1 [UNC0642] | 3.16 | 2.45 | 0.987 | – | – | 2.44 | 1.64 | 1.53 | 2.69 | 1.81 | 1.56 | 3.39 | 3.45 |
| CCCCC(=O)OCC(=O)[C@]1(O)Cc2c(O)c3c(c(O)c2[C@@H](O[C@H]2C[C@H](NC(=O)C(F)(F)F)[C@H](O)[C@H](C)O2)C1)C(=O)c1c(OC)cccc1C3=O [Valrubicin] | 0.0634 | 0.096 | 0.0807 | 0.164 | 0.16 | 0.0751 | 0.00661 | 0.0881 | 0.235 | 0.256 | 0.179 | 0.245 | 0.381 |
| COCC[n+]1c2c(n(Cc3cnccn3)c1C)C(=O)c1ccccc1C2=O [YM155] | 0.00975 | < 0.001 | 0.01 | 0.0171 | 0.0178 | 0.0155 | 0.00309 | 0.0325 | 0.00777 | 0.691 | 0.209 | 0.78 | 1.33 |
